Reference: the supplement of paper PMC10307832

Key:
Test in all cases: relative viability (nuclei count vs DMSO), 5 days (fraction); higher = more cells survive
RO-3306 + Bortezomib = compound: C1=CC2=C(C=CC(=C2)C=C3C(=O)NC(=NCC4=CC=CS4)S3)N=C1 [RO-3306] + CC(C)C[C@H](NC(=O)[C@H](Cc1ccccc1)NC(=O)c1cnccn1)B(O)O [Bortezomib] (partner 0.002 µM)
Outline: (§1)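 One day after seeding in 1536-well plates, lung cancer cell lines were dosed by pin tool. Dosing was either single-drug or a fixed anchor-drug dose plus five library-drug doses (not always all listed) in √10 steps. After 5 days, nuclei were stained in one fix-and-stain step and counted on 4× images, and relative viability is the nuclei count of treated wells over that of vehicle wells, given as the median of duplicate plates.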

RO-3306 + Lapatinib = compound: C1=CC2=C(C=CC(=C2)C=C3C(=O)NC(=NCC4=CC=CS4)S3)N=C1 [RO-3306] + CS(=O)(=O)CCNCc1ccc(-c2ccc3ncnc(Nc4ccc(OCc5cccc(F)c5)c(Cl)c4)c3c2)o1 [Lapatinib] (partner 2 µM)
Outline: as §1

RO-3306 + Pictilisib = compound: C1=CC2=C(C=CC(=C2)C=C3C(=O)NC(=NCC4=CC=CS4)S3)N=C1 [RO-3306] + CS(=O)(=O)N1CCN(Cc2cc3nc(-c4cccc5[nH]ncc45)nc(N4CCOCC4)c3s2)CC1 [Pictilisib] (partner 1 µM)
Outline: as §1

[1] = compound: O=S(=O)(c1ccccc1)N(CC(F)(F)F)c1ccc(C(O)(C(F)(F)F)C(F)(F)F)cc1 + C[C@@H](Oc1cc(-c2cnn(C3CCNCC3)c2)cnc1N)c1c(Cl)ccc(F)c1Cl [Crizotinib] (partner 1 µM)
Outline: as §1

With UMC-11 the relative viability (RO-3306 + Bortezomib; first compound 0.01 µM) was 1.22, the relative viability (RO-3306 + Bortezomib; first compound 0.03162 µM) was 0.407 and the relative viability (RO-3306 + Bortezomib; first compound 0.1 µM) was 0.64. For the same cell line, the relative viability (RO-3306 + Bortezomib; first compound 0.3162 µM) was 0.689, the relative viability (RO-3306 + Bortezomib; first compound 1 µM) was 0.538 and the relative viability (RO-3306 + Lapatinib; first compound 0.01 µM) was 1.06. The relative viability (RO-3306 + Lapatinib; first compound 0.03162 µM) was 0.676, the relative viability (RO-3306 + Lapatinib; first compound 0.1 µM) was 0.829 and the relative viability (RO-3306 + Lapatinib; first compound 0.3162 µM) was 0.971. For the same cell line, the relative viability (RO-3306 + Lapatinib; first compound 1 µM) was 0.671, the relative viability (RO-3306 + Pictilisib; first compound 0.01 µM) was 1.16 and the relative viability (RO-3306 + Pictilisib; first compound 0.03162 µM) was 0.729. For the same cell line, the relative viability (RO-3306 + Pictilisib; first compound 0.1 µM) was 0.811, the relative viability (RO-3306 + Pictilisib; first compound 0.3162 µM) was 0.859 and the relative viability (RO-3306 + Pictilisib; first compound 1 µM) was 0.617. It also gave a relative viability ([1]; first compound 0.8 µM) of 0.585, a relative viability ([1]; first compound 2.53 µM) of 0.583 and a relative viability ([1]; first compound 8 µM) of 0.749.
